In ChEMBL document CHEMBL1123524, “Aminoglycoside antibiotics. 6. Chemical reactions of aminoglycosides with disodium carbenicillin” (1986):

Legend:
Assay type in all cases: functional
Escherichia coli [1] = assay: Antibacterial activity expressed as MIC value was determined on Escherichia coli A-9632 organism
Escherichia coli [2] = assay: Antibacterial activity expressed as MIC value was determined on Escherichia coli A-22356 organism
Escherichia coli [3] = assay: Antibacterial activity expressed as MIC value was determined on Escherichia coli A-20665 organism
Escherichia coli [4] = assay: Antibacterial activity expressed as MIC value was determined on Escherichia coli A-20683 organism
Escherichia coli [5] = assay: Antibacterial activity expressed as MIC value was determined on Escherichia coli A-20697 organism
Escherichia coli [6] = assay: Antibacterial activity expressed as MIC value was determined on Escherichia coli A-20732 organism
Escherichia coli [7] = assay: Antibacterial activity expressed as MIC value was determined on Escherichia coli A-20895 organism
Escherichia coli [8] = assay: Antibacterial activity expressed as MIC value was determined on Escherichia coli A-21218 organism
Escherichia coli [9] = assay: Antibacterial activity expressed as MIC value was determined on Escherichia coli A-22045 organism
Enterobacter cloacae [10] = assay: Antibacterial activity expressed as MIC value was determined on Enterobacter cloacae A-21006 organism
Enterobacter cloacae [11] = assay: Antibacterial activity expressed as MIC value was determined on Enterobacter cloacae A-21136 organism
Enterobacter cloacae [12] = assay: Antibacterial activity expressed as MIC value was determined on Enterobacter cloacae A-9656 organism
Klebsiella pneumoniae = assay: Antibacterial activity expressed as MIC value was determined on Klebsiella pneumonia A-20468 organism
Providencia stuartii [13] = assay: Antibacterial activity expressed as MIC value was determined on Proteus stuartii A-21210 organism
Providencia rettgeri [14] = assay: Antibacterial activity expressed as MIC value was determined on Proteus rettgeri A-9637 organism
Proteus mirabilis = assay: Antibacterial activity expressed as MIC value was determined on Proteus mirabilis A-9900 organism
Pseudomonas aeruginosa [15] = assay: Antibacterial activity expressed as MIC value was determined on Pseudomonas aeruginosa A-20601 organism
Pseudomonas aeruginosa [16] = assay: Antibacterial activity expressed as MIC value was determined on Pseudomonas aeruginosa A-20653 organism
Pseudomonas aeruginosa [17] = assay: Antibacterial activity expressed as MIC value was determined on Pseudomonas aeruginosa A-20717 organism
Pseudomonas aeruginosa [18] = assay: Antibacterial activity expressed as MIC value was determined on Pseudomonas aeruginosa A-20897 organism
Pseudomonas aeruginosa [19] = assay: Antibacterial activity expressed as MIC value was determined on Pseudomonas aeruginosa A-21294 organism
Providencia rettgeri [20] = assay: Antibacterial activity expressed as MIC value was determined on Proteus rettgeri A-21207 organism
Pseudomonas aeruginosa [21] = assay: Antibacterial activity expressed as MIC value was determined on Pseudomonas aeruginosa A-21509 organism
Pseudomonas aeruginosa [22] = assay: Antibacterial activity expressed as MIC value was determined on Pseudomonas aeruginosa A-22233 organism
Pseudomonas aeruginosa [23] = assay: Antibacterial activity expressed as MIC value was determined on Pseudomonas aeruginosa A-9834A organism
Serratia marcescens = assay: Antibacterial activity expressed as MIC value was determined on Serratia marcescens A-20019 organism
Staphylococcus aureus [24] = assay: Antibacterial activity expressed as MIC value was determined on Staphylococcus aureus A-20240 organism
Staphylococcus aureus [25] = assay: Antibacterial activity expressed as MIC value was determined on Staphylococcus aureus A-21978 organism
Staphylococcus aureus [26] = assay: Antibacterial activity expressed as MIC value was determined on Staphylococcus aureus A-22058 organism
Staphylococcus aureus [27] = assay: Antibacterial activity expressed as MIC value was determined on Staphylococcus aureus A-22210 organism
Staphylococcus aureus [28] = assay: Antibacterial activity expressed as MIC value was determined on Staphylococcus aureus A-22231 organism
Staphylococcus aureus [29] = assay: Antibacterial activity expressed as MIC value was determined on Staphylococcus aureus A-9537 organism
Providencia stuartii [30] = assay: Antibacterial activity expressed as MIC value was determined on Proteus stuartii A-20894 organism
Pseudomonas aeruginosa [31] = assay: Antibacterial activity expressed as MIC value was determined on Pseudomonas aeruginosa A-20741 organism
Enterobacter cloacae [32] = assay: Antibacterial activity expressed as MIC value was determined on Enterobacter cloacae A-20364 organism
Pseudomonas aeruginosa [33] = assay: Antibacterial activity expressed as MIC value was determined on Pseudomonas aeruginosa A-21508 organism

Structure (SMILES) | MIC (Escherichia coli [1]) [µg/mL] | MIC (Escherichia coli [2]) [µg/mL] | MIC (Escherichia coli [3]) [µg/mL] | MIC (Escherichia coli [4]) [µg/mL] | MIC (Escherichia coli [5]) [µg/mL] | MIC (Escherichia coli [6]) [µg/mL] | MIC (Escherichia coli [7]) [µg/mL] | MIC (Escherichia coli [8]) [µg/mL] | MIC (Escherichia coli [9]) [µg/mL] | MIC (Enterobacter cloacae [10]) [µg/mL] | MIC (Enterobacter cloacae [11]) [µg/mL] | MIC (Enterobacter cloacae [12]) [µg/mL] | MIC (Klebsiella pneumoniae) [µg/mL] | MIC (Providencia stuartii [13]) [µg/mL] | MIC (Providencia rettgeri [14]) [µg/mL] | MIC (Proteus mirabilis) [µg/mL] | MIC (Pseudomonas aeruginosa [15]) [µg/mL] | MIC (Pseudomonas aeruginosa [16]) [µg/mL] | MIC (Pseudomonas aeruginosa [17]) [µg/mL] | MIC (Pseudomonas aeruginosa [18]) [µg/mL] | other results
CC1(C)S[C@@H]2[C@H](NC(=O)C(C(=O)O)c3ccccc3)C(=O)N2[C@H]1C(=O)O.NC[C@H]1O[C@H](O[C@H]2[C@H](O)[C@@H](O[C@H]3O[C@H](CO)[C@@H](O)[C@H](N)[C@H]3O)[C@H](N)C[C@@H]2N)[C@H](N)C[C@@H]1O | > 250 | > 250 | > 250 | > 250 | > 250 | > 250 | > 250 | > 250 | > 250 | > 250 | > 250 | > 250 | > 250 | > 250 | 125 | > 250 | > 250 | 250 | > 250 | > 250 | MIC (Pseudomonas aeruginosa [19]): > 250 µg/mL; MIC (Providencia rettgeri [20]): > 250 µg/mL; MIC (Pseudomonas aeruginosa [21]): > 250 µg/mL; MIC (Pseudomonas aeruginosa [22]): > 250 µg/mL; MIC (Pseudomonas aeruginosa [23]): 250 µg/mL; MIC (Serratia marcescens): 250 µg/mL; MIC (Staphylococcus aureus [24]): > 250 µg/mL; MIC (Staphylococcus aureus [25]): > 250 µg/mL; MIC (Staphylococcus aureus [26]): > 250 µg/mL; MIC (Staphylococcus aureus [27]): > 250 µg/mL; MIC (Staphylococcus aureus [28]): 63 µg/mL; MIC (Staphylococcus aureus [29]): 63 µg/mL; MIC (Providencia stuartii [30]): > 250 µg/mL; MIC (Pseudomonas aeruginosa [31]): > 250 µg/mL; MIC (Enterobacter cloacae [32]): > 250 µg/mL; MIC (Pseudomonas aeruginosa [33]): 250 µg/mL
CC1(C)S[C@@H]2[C@H](NC(=O)C(C(=O)O)c3ccccc3)C(=O)N2[C@H]1C(=O)O.NC[C@H]1O[C@H](O[C@H]2[C@H](O)[C@@H](O[C@H]3O[C@H](CO)[C@@H](O)[C@H](N)[C@H]3O)[C@H](N)C[C@@H]2N)[C@H](O)[C@@H](O)[C@@H]1O | > 250 | > 250 | > 250 | > 250 | > 250 | > 250 | > 250 | > 250 | > 250 | > 250 | > 250 | > 250 | > 250 | > 250 | 250 | > 250 | > 250 | > 250 | > 250 | > 250 | MIC (Pseudomonas aeruginosa [19]): > 250 µg/mL; MIC (Providencia rettgeri [20]): > 250 µg/mL; MIC (Pseudomonas aeruginosa [21]): > 250 µg/mL; MIC (Pseudomonas aeruginosa [22]): > 250 µg/mL; MIC (Pseudomonas aeruginosa [23]): > 250 µg/mL; MIC (Serratia marcescens): > 250 µg/mL; MIC (Staphylococcus aureus [24]): > 250 µg/mL; MIC (Staphylococcus aureus [25]): > 250 µg/mL; MIC (Staphylococcus aureus [26]): > 250 µg/mL; MIC (Staphylococcus aureus [27]): > 250 µg/mL; MIC (Staphylococcus aureus [28]): > 250 µg/mL; MIC (Staphylococcus aureus [29]): > 250 µg/mL; MIC (Providencia stuartii [30]): > 250 µg/mL; MIC (Pseudomonas aeruginosa [31]): > 250 µg/mL; MIC (Enterobacter cloacae [32]): > 250 µg/mL; MIC (Pseudomonas aeruginosa [33]): > 250 µg/mL
